Laboratory results from patent US8686150B2 (Sanofi, priority 2011, dated 2014).

What follows are compounds tested against T1, human full-length recombinant PKC βII (Homo sapiens, UniProt P05771) (assay: Determination of PKC βII inhibition (Caliper mobility-shift kinase assay, Fluorescein-RFARKGSLRQKNV peptide substrate)). Conditions: example compounds at a final concentration of 1.14 μM (±0.15 μM).
T1 construct: Active human full-length recombinant PKC βII; purchased Invitrogen GmbH, Darmstadt, Germany
T1 sequence (P05771 1-673 isoform P05771-2): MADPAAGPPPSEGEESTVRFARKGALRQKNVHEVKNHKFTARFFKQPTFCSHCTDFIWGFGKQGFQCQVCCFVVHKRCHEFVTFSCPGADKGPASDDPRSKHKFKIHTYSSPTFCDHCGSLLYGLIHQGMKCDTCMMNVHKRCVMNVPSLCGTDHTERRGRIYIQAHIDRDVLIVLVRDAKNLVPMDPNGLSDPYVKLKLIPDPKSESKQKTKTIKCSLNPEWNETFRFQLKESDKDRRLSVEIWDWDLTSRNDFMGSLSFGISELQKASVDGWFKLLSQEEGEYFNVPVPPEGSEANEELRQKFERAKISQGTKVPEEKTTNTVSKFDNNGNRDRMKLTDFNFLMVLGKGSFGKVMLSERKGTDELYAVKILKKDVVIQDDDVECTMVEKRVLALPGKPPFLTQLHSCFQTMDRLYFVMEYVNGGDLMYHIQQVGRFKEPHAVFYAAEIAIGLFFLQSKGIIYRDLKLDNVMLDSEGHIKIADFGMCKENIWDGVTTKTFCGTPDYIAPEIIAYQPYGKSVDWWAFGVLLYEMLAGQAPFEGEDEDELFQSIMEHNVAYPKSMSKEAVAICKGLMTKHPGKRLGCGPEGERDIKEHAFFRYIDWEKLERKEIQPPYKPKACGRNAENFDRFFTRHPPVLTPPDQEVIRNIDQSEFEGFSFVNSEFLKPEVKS
Type: biochemical
Outline: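 Full-length PKC βII (30 ng/ml in pre-dilution) with PS/DAG/Ca2+ activators, pH 7.4; fluorescein peptide and ATP at 3 μM and 120 μM before mixing. Reaction ran 60 min at 32 °C, was EDTA-stopped, and was read by mobility shift. % inhibition came from product/(substrate+product) peak heights, tested at 1.14 μM final.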
For `Cc1cc(O)ccc1-c1cc(C(=O)N2CCNCC2c2ccc(F)cc2F)c2c(C)n[nH]c2n1` (centres unmarked) [Example 152, [2-(2,4-Difluoro-phenyl)-piperazin-1-yl]-[6-(4-hydroxy-2-methyl-phenyl)-3-methyl-1H-pyrazolo[3,4-b]pyridin-4-yl]-methanone], the inhibition at 1.14 µM was 94%.
For `Cc1cc(O)ccc1-c1cc(C(=O)N2CCNCC2c2ccccc2Cl)c2c(C)n[nH]c2n1` (centres unmarked) [Example 153, [2-(2-Chloro-phenyl)-piperazin-1-yl]-[6-(4-hydroxy-2-methyl-phenyl)-3-methyl-1H-pyrazolo[3,4-b]pyridin-4-yl]-methanone], the inhibition at 1.14 µM was 89%.
`Cc1cc(O)ccc1-c1cc(C(=O)N2CCNCC2c2ccc(C(F)(F)F)cc2)c2c(C)n[nH]c2n1` (centres unmarked) [Example 154, [6-(4-Hydroxy-2-methyl-phenyl)-3-methyl-1H-pyrazolo[3,4-b]pyridin-4-yl]-[2-(4-trifluoromethyl-phenyl)-piperazin-1-yl]-methanone] gave an inhibition at 1.14 µM of 94%.
`Cc1cc(O)ccc1-c1cc(C(=O)N2CC(C)(C)NCC2(C)C)c2c(C)n[nH]c2n1` [Example 155, [6-(4-Hydroxy-2-methyl-phenyl)-3-methyl-1H-pyrazolo[3,4-b]pyridin-4-yl]-(2,2,5,5-tetramethyl-piperazin-1-yl)-methanone] showed an inhibition at 1.14 µM of 88%.
For `Cc1cc(O)cc(C)c1-c1cc(C(=O)N2CCNCC2(C)C)c2c(C)n[nH]c2n1` [Example 156, (2,2-Dimethyl-piperazin-1-yl)-[6-(4-hydroxy-2,6-dimethyl-phenyl)-3-methyl-1H-pyrazolo[3,4-b]pyridin-4-yl]-methanone], the inhibition at 1.14 µM was 26%.
For `CC1(C)CNCCN1C(=O)c1cc(-c2ccc(O)cc2)nc2[nH]nc(C3CC3)c12` [Example 157, [3-Cyclopropyl-6-(4-hydroxy-phenyl)-1H-pyrazolo[3,4-b]pyridin-4-yl]-(2,2-dimethyl-piperazin-1-yl)-methanone], the inhibition at 1.14 µM was 91%.
Compound `O=C(c1cc(-c2ccc(O)cc2)nc2[nH]nc(C3CC3)c12)N1CCNC[C@H]1c1ccccc1` [Example 158, [3-Cyclopropyl-6-(4-hydroxy-phenyl)-1H-pyrazolo[3,4-b]pyridin-4-yl]-((R)-2-phenyl-piperazin-1-yl)-methanone] has an inhibition at 1.14 µM of 78%.
Work on `CCc1n[nH]c2nc(-c3ccc(O)cc3)cc(C(=O)NC3CN4CCC3CC4)c12` (centres unmarked) [Example 159, 3-Ethyl-6-(4-hydroxy-phenyl)-1H-pyrazolo[3,4-b]pyridine-4-carboxylic acid (1-aza-bicyclo[2.2.2]oct-3-yl)-amide] yielded an inhibition at 1.14 µM of 55%.
For `CCc1n[nH]c2nc(-c3ccc(O)cc3)cc(C(=O)N3CC(N)C3)c12` [Example 160, (3-Amino-azetidin-1-yl)-[3-ethyl-6-(4-hydroxy-phenyl)-1H-pyrazolo[3,4-b]pyridin-4-yl]-methanone], the inhibition at 1.14 µM was 49%.
Compound `CCc1n[nH]c2nc(-c3ccc(O)cc3)cc(C(=O)N[C@H]3CNC[C@@H]3OC)c12` [Example 161, 3-Ethyl-6-(4-hydroxy-phenyl)-1H-pyrazolo[3,4-b]pyridine-4-carboxylic acid ((3S,4S)-4-methoxy-pyrrolidin-3-yl)-amide] has an inhibition at 1.14 µM of 77%.
In the case of `CCc1n[nH]c2nc(-c3ccc(O)cc3)cc(C(=O)N[C@@H]3CN4CCC3CC4)c12` [Example 162, (S)-3-Ethyl-6-(4-hydroxy-phenyl)-1H-pyrazolo[3,4-b]pyridine-4-carboxylic acid (1-aza-bicyclo[2.2.2]oct-3-yl)-amide], the inhibition at 1.14 µM is reported as 51%.
Work on `CCc1n[nH]c2nc(-c3ccc(O)cc3)cc(C(=O)NC3CC4CCC(C3)N4C)c12` (centres unmarked) [Example 163, 3-Ethyl-6-(4-hydroxy-phenyl)-1H-pyrazolo[3,4-b]pyridine-4-carboxylic acid (8-methyl-8-aza-bicyclo[3.2.1]oct-3-yl)-amide] yielded an inhibition at 1.14 µM of 57%.
`CCc1n[nH]c2nc(-c3ccc(O)cc3)cc(C(=O)NC3CC4CCC(C3)N4C)c12` [Example 164, 3-Ethyl-6-(4-hydroxy-phenyl)-1H-pyrazolo[3,4-b]pyridine-4-carboxylic acid ((3R)-8-methyl-8-aza-bicyclo[3.2.1]oct-3-yl)-amide] was tested, and the “% Inhibition” value was 53%.
`CCc1n[nH]c2nc(-c3ccc(O)cc3)cc(C(=O)N3CCNC(C)C3)c12` (centres unmarked) [Example 165, [3-Ethyl-6-(4-hydroxy-phenyl)-1H-pyrazolo[3,4-b]pyridin-4-yl]-(3-methyl-piperazin-1-yl)-methanone] gave an inhibition at 1.14 µM of 92%.
With `CCc1n[nH]c2nc(-c3ccc(O)cc3)cc(C(=O)N3CCC(N)CC3)c12` [Example 166, (4-Amino-piperidin-1-yl)-[3-ethyl-6-(4-hydroxy-phenyl)-1H-pyrazolo[3,4-b]pyridin-4-yl]-methanone] the inhibition at 1.14 µM was 87%.
Work on `CCc1n[nH]c2nc(-c3ccc(O)cc3)cc(C(=O)N3CCC4CNCC43)c12` (centres unmarked) [Example 167, [3-Ethyl-6-(4-hydroxy-phenyl)-1H-pyrazolo[3,4-b]pyridin-4-yl]-(hexahydro-pyrrolo[3,4-b]pyrrol-1-yl)-methanone] yielded an inhibition at 1.14 µM of 58%.
`CCc1n[nH]c2nc(-c3ccc(O)cc3)cc(C(=O)NC3CCNC4(CCC4)C3)c12` (centres unmarked) [Example 168, 3-Ethyl-6-(4-hydroxy-phenyl)-1H-pyrazolo[3,4-b]pyridine-4-carboxylic acid (5-aza-spiro[3.5]non-8-yl)-amide] gave an inhibition at 1.14 µM of 44%.
`CCc1n[nH]c2nc(-c3ccc(O)cc3)cc(C(=O)N3CC4(CCNCC4)C3)c12` [Example 169, (2,7-Diaza-spiro[3.5]non-2-yl)-[3-ethyl-6-(4-hydroxy-phenyl)-1H-pyrazolo[3,4-b]pyridin-4-yl]-methanone] showed an inhibition at 1.14 µM of 84%.
For `CCc1n[nH]c2nc(-c3ccc(O)cc3)cc(C(=O)NC3CCCC(N)C3)c12` (centres unmarked) [Example 170, 3-Ethyl-6-(4-hydroxy-phenyl)-1H-pyrazolo[3,4-b]pyridine-4-carboxylic acid (3-amino-cyclohexyl)-amide], the inhibition at 1.14 µM was 59%.
For `CCc1n[nH]c2nc(-c3ccc(O)cc3)cc(C(=O)N3CCC4(CC3)CNC4)c12` [Example 171, (2,7-Diaza-spiro[3.5]non-7-yl)-[3-ethyl-6-(4-hydroxy-phenyl)-1H-pyrazolo[3,4-b]pyridin-4-yl]-methanone], the inhibition at 1.14 µM was 77%.
Work on `CCc1n[nH]c2nc(-c3ccc(O)cc3)cc(C(=O)N3CCC4(CCNC4)C3)c12` (centres unmarked) [Example 172, (2,7-Diaza-spiro[4.4]non-2-yl)-[3-ethyl-6-(4-hydroxy-phenyl)-1H-pyrazolo[3,4-b]pyridin-4-yl]-methanone] yielded an inhibition at 1.14 µM of 67%.
In the case of `CCc1n[nH]c2nc(-c3ccc(O)cc3)cc(C(=O)N3CCC4(CCCNC4)C3)c12` (centres unmarked) [Example 173, (2,7-Diaza-spiro[4.5]dec-2-yl)-[3-ethyl-6-(4-hydroxy-phenyl)-1H-pyrazolo[3,4-b]pyridin-4-yl]-methanone], the inhibition at 1.14 µM is reported as 58%.
`CCc1n[nH]c2nc(-c3ccc(O)cc3)cc(C(=O)N(C)C3CCN(C)CC3)c12` [Example 174, 3-Ethyl-6-(4-hydroxy-phenyl)-1H-pyrazolo[3,4-b]pyridine-4-carboxylic acid methyl-(1-methyl-piperidin-4-yl)-amide] gave an inhibition at 1.14 µM of 34%.
In the case of `CCc1n[nH]c2nc(-c3ccc(O)cc3)cc(C(=O)NC3CCCN(CC)C3)c12` (centres unmarked) [Example 175, 3-Ethyl-6-(4-hydroxy-phenyl)-1H-pyrazolo[3,4-b]pyridine-4-carboxylic acid (1-ethyl-piperidin-3-yl)-amide], the inhibition at 1.14 µM is reported as 46%.
Compound `CCc1n[nH]c2nc(-c3ccc(O)cc3)cc(C(=O)N3CC[C@@H](N(C)C)C3)c12` [Example 176, ((R)-3-Dimethylamino-pyrrolidin-1-yl)-[3-ethyl-6-(4-hydroxy-phenyl)-1H-pyrazolo[3,4-b]pyridin-4-yl]-methanone] has an inhibition at 1.14 µM of 40%.
With `CCc1n[nH]c2nc(-c3ccc(O)cc3)cc(C(=O)N3CC[C@H](N(C)C)C3)c12` [Example 177, ((S)-3-Dimethylamino-pyrrolidin-1-yl)-[3-ethyl-6-(4-hydroxy-phenyl)-1H-pyrazolo[3,4-b]pyridin-4-yl]-methanone] the inhibition at 1.14 µM was 50%.
Work on `CCc1n[nH]c2nc(-c3ccc(O)cc3)cc(C(=O)N3CCC(NC)C3)c12` (centres unmarked) [Example 178, [3-Ethyl-6-(4-hydroxy-phenyl)-1H-pyrazolo[3,4-b]pyridin-4-yl]-(3-methylamino-pyrrolidin-1-yl)-methanone] yielded an inhibition at 1.14 µM of 71%.
`CCc1n[nH]c2nc(-c3ccc(O)cc3)cc(C(=O)N3C[C@]4(C)CN(C)C[C@](C)(C3)C4O)c12` (stereo partly drawn) [Example 179, [3-Ethyl-6-(4-hydroxy-phenyl)-1H-pyrazolo[3,4-b]pyridin-4-yl]-((1S,5R)-9-hydroxy-1,5,7-trimethyl-3,7-diaza-bicyclo[3.3.1]non-3-yl)-methanone] gave an inhibition at 1.14 µM of 55%.
`CCc1n[nH]c2nc(-c3ccc(O)cc3)cc(C(=O)NC3CCCN(C)C3)c12` (centres unmarked) [Example 180, 3-Ethyl-6-(4-hydroxy-phenyl)-1H-pyrazolo[3,4-b]pyridine-4-carboxylic acid (1-methyl-piperidin-3-yl)-amide] gave an inhibition at 1.14 µM of 53%.
In the case of `CCc1n[nH]c2nc(-c3ccc(O)cc3)cc(C(=O)NC3CC4(CCNCC4)c4ccccc43)c12` (centres unmarked) [Example 181, 3-Ethyl-6-(4-hydroxy-phenyl)-1H-pyrazolo[3,4-b]pyridine-4-carboxylic acid (2,3-dihydrospiro[1H-indene-1,4′-piperidin]-3-yl)-amide], the inhibition at 1.14 µM is reported as 77%.
For `CCc1n[nH]c2nc(-c3ccc(O)cc3)cc(C(=O)NC3CCN(C)CC3)c12` [Example 182, 3-Ethyl-6-(4-hydroxy-phenyl)-1H-pyrazolo[3,4-b]pyridine-4-carboxylic acid (1-methyl-piperidin-4-yl)-amide], the inhibition at 1.14 µM was 44%.
`CCc1n[nH]c2nc(-c3ccc(O)cc3)cc(C(=O)NC3CNC3)c12` [Example 183, 3-Ethyl-6-(4-hydroxy-phenyl)-1H-pyrazolo[3,4-b]pyridine-4-carboxylic acid azetidin-3-ylamide] was tested, and the inhibition at 1.14 µM was 67%.
